According to US20260240903A1, “USE OF TRIVALENT CHROMIUM IONS AND/OR METAL CHROMIUM IN PREPARATION OF DRUG FOR IMMUNOTHERAPY OF TUMORS” (SHENZHEN LUOHU PEOPLE'S HOSPITAL, priority 2023, published 2026):

What was measured:
[1] = test system: subcutaneous melanoma (B16F10 cells); experiment: Growth of subcutaneous melanoma in B16F10 tumor-bearing mice; format: in vivo; settings: B16F10 tumor-bearing C57BL/6 mice, vein injection twice at 4-day interval; BMS-202 0.1 mg/mouse, Cr^3+ 100 μg/mL 100 μL, 12 days
From the text: A batch of SPF C57BL/6 mice (6 weeks old) were purchased from a company. B16F10 cells were selected as subcutaneous tumor model cells. 5×10^5 B16F10 cells were inoculated on a right side of a dorsal flank of each mouse and cultured for 13 days. When tumor volumes reached 100-200 mm^3, the modeling was successful. The obtained tumor-bearing mice can be used for a subsequent in vivo experiment. Animal experiments all comply with requirements for animal protection ethics and welfare.
The successfully constructed B16 tumor-bearing mice were divided into four groups: a CrCl3 experimental group (amount of chromium ions: 100 μg/mL, 100 μL), a BMS experimental group (0.1 mg/mouse), a CrCl3+BMS experimental group (100 μg/mL, 100 μL CrCl3+0.1 mg BMS/mouse) and a control group (normal saline, 100 μL) (n=3 for each group). On the first day, CrCl3, BMS and CrCl3+BMS were injected into veins of mice in different groups, respectively. […] Tumor growth was monitored every two days by a digital caliper with a tumor volume calculation formula of ½×L×W^2. On the 12th day of treatment, the mice were euthanatized.

PI3K/AKT/mTOR pathway = experiment: Protein immunoblotting of the PI3K/Akt/mTOR pathway in RAW264.7 cells; format: cell-based, mouse
Method: (§1) Cr^3+ with different concentrations (0 μg/mL, 50 μg/mL, 100 μg/mL and 200 μg/mL) was co-incubated with RAW264.7 cells (1×10^6 cells/well) for 48 h. Cell supernatants and protein samples were collected, and various types of […] including MIP-la were detected through ELISA. The expression of various proteins in a PI3K/Akt/mTOR pathway was detected through protein immunoblotting.

macrophages (RAW264.7) = experiment: Transwell detection of the promotion of macrophage migration by metal ions; format: cell-based, mouse; settings: for ability to promote the migration of macrophages: liver cancer cells in lower chamber, metal ions 0, 500, 1000, 2000 μM, RAW264.7 in upper chamber
From the text: This example provides the establishment and validation of a platform for screening metal ions that promotes the migration of immune cells. A specific method is described below. • 1. Preparation of metal ions: metal compounds such as zinc chloride, potassium chloride, magnesium chloride, manganese chloride, anhydrous calcium chloride, aluminium sulfate (octadecahydrate), anhydrous copper(II) chloride, anhydrous iron(III) chloride, iron(II) chloride, chromium(III) chloride hexahydrate and anhydrous cobalt(II) chloride were prepared into solutions ranging from 0 μM to 2000 μM using normal saline, respectively. • 2. Preparation of BM-DCs (bone marrow-derived dendritic cells), RAW264.7 (mouse monocytic leukemia macrophage cells) and mouse spleen lymphocytes • (1) Acquisition of mouse BM-DCs: bone marrow was taken from hind limbs of […] mice, and treated with a red blood cell lysis buffer to remove red blood cells; bone marrow cells (4×10^6 cells) were cultured in a 10 cm culture dish, and 10% FBS, mercaptoethanol (2-ME, 0.8 ng/ml, Sigma) and mouse granulocyte-macrophage colony-stimulating factor (GM-CSF, 20 ng/mL, PeproTech) were added to a DMEM medium and cultured for 7 days; expression levels of CD11c, CD80 and CD86 in cells were detected using antibodies and a flow cytometer. • (2) Mouse macrophages RAW264.7: derived from a cell bank of the Chinese Academy of Sciences and cultured. • (3) Mouse spleen lymphocytes: spleens of C57BL/6 mice were acquired and filtered by a screen into single cells, treated with a red blood cell lysis buffer to remove red blood cells, and centrifuged with lymphocyte isolation solution to isolate the cells for in vitro culture. • 3. Transwell detection of the promotion of the migration of immune cells by metal ions
Liver cancer cells were placed in lower chambers (12 wells) of a Transwell plate, and the above metal ion solutions with different concentrations (0 μM, 500 μM, 1000 μM and 2000 μM) were added to the lower chambers, respectively. After 24 h, the BM-DCs, the RAW264.7 cells and the spleen lymphocytes were placed in upper chambers (2×10^4 cells/well) of the Transwell plate, respectively. The cells were co-cultured for a certain period of time, and nylon membranes of the chambers were taken and stained to observe the migration of the cells.

RAW264.7 cells = experiment: CCK-8 assay of toxicity of metal ions; format: cell-based, mouse; settings: 0-200 μg/mL metal ions, 24 h
Method: Toxicities of metal ions with different concentrations on RAW264.7 cells were quantified through a CCK-8 assay. Specific steps are as follows: RAW264.7 cells (2×10^4 cells/well, n=4) were inoculated in a 96-well plate, stayed for a whole night and cultured by media containing metal ions with different concentrations (0 μg/mL, 25 μg/mL, 50 μg/mL, 100 μg/mL and 200 μg/mL) for 24 h, respectively, and cell viability was measured through CCK-8.

IR tyrosine kinases = IR tyrosine kinases (Homo sapiens, UniProt P06213); settings: background statement; cited from earlier work
Sequence of IR tyrosine kinases (P06213 28-1382): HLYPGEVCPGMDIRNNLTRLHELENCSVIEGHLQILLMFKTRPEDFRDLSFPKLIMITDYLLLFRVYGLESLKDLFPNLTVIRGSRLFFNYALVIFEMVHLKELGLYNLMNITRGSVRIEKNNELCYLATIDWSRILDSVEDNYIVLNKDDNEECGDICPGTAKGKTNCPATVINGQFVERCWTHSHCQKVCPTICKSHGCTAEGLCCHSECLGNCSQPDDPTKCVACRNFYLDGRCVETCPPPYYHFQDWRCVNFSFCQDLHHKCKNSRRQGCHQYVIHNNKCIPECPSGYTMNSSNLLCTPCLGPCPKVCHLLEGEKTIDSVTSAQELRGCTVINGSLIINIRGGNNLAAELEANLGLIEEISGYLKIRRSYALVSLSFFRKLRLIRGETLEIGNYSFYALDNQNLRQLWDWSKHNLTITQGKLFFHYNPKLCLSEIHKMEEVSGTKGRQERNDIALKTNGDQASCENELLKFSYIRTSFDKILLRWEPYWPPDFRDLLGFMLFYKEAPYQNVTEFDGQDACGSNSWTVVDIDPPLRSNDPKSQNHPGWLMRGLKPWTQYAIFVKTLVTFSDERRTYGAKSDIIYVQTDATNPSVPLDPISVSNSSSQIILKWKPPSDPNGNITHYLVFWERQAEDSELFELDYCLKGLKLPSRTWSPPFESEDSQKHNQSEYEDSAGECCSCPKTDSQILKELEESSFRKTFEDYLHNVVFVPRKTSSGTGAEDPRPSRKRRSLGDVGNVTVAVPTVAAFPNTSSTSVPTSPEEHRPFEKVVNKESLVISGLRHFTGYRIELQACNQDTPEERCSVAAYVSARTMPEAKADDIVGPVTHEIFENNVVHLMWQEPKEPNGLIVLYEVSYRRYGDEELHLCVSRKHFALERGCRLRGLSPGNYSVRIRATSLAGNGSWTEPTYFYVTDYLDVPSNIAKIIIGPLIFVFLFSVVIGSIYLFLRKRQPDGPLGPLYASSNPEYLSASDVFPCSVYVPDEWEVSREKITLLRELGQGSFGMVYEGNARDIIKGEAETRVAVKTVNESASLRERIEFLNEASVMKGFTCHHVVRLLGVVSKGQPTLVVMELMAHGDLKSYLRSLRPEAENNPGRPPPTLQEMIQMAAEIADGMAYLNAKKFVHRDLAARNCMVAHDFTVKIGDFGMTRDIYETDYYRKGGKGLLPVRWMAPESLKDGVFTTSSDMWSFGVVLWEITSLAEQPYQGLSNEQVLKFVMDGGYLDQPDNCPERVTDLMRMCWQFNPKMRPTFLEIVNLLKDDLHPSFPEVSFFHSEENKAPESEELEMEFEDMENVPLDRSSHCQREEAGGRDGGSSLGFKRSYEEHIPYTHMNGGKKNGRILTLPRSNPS

[2] = test system: MIP-1α secretion in RAW264.7 cells; experiment: ELISA of MIP-1α secretion in RAW264.7 cells; format: cell-based, mouse; settings: Cr^3+ 0, 50, 100, 200 μg/mL, 48 h
Method: as §1

[3] = Stability of metal ions in vitro and in vivo; format: physicochemical

| Compound | effect on tumor growth of subcutaneous melanoma [1] | activation of the PI3K/AKT/mTOR pathway (PI3K/AKT/mTOR pathway) | expression of AKT and phosphorylated AKT (pAKT) (PI3K/AKT/mTOR pathway; 48 h) | migration promoting effect on macrophages (macrophages (RAW264.7); Cr^3+ between 0 μM and 2000 μM) | ability to promote the migration of macrophages (macrophages (RAW264.7)) | toxicity on RAW264.7 cells (cell viability, CCK-8) (RAW264.7 cells) | enhancement of the activity of IR tyrosine kinases (IR tyrosine kinases) | secretion of MIP-1α [2] | stability in vitro and in vivo [3] |
| --- | --- | --- | --- | --- | --- | --- | --- | --- | --- |
| COc1nc(OCc2cccc(-c3ccccc3)c2C)ccc1CNCCNC(C)=O [BMS-202, reference compound] | no significant limiting effect on the tumor growth |  |  |  |  |  |  |  |  |
| O.O.O.O.O.O.[Cl][Cr]([Cl])[Cl] [Cr^3+, chromium(III) chloride hexahydrate] | no significant limiting effect on the tumor growth | can activate the PI3K/AKT/mTOR pathway | induces high expression | significant migration promoting effect | have an ability to promote the migration of macrophages | good biocompatibility (low biological toxicity) | six times | significantly increased |  |
| [Cl][Cu][Cl] [Cu^2+, anhydrous copper(II) chloride, reference compound] |  |  |  |  | have an ability to promote the migration of macrophages | relatively high cytotoxicity |  |  |  |
| [Cl][Fe][Cl] [Fe^2+, iron(II) chloride, reference compound] |  |  |  |  | have an ability to promote the migration of macrophages |  |  |  | poor stability in vitro and in vivo and is easily oxidized to Fe^3+ |
